The values that follow are results of earlier work, collected in patent US12582620B2, “Oral solutions comprising lisdexamfetamine salts” (Adalvo Limited, priority 2019, dated 2026).

The conditions of data set [1]: acidic versus alkaline conditions.
Assay in data set [2]: not given
This is another data set of the same source.

Take `C[C@@H](Cc1ccccc1)NC(=O)[C@@H](N)CCCCN` [Lisdexamfetamine dimesylate, (2S)-2,6-diamino-N-[(1S)-1-methyl-2-phenylethyl] hexanamide dimethanesulfonate]: the Susceptibility to hydrolysis result in data set [1] is given as “more hydrolysis-susceptible under alkaline conditions”. For the same compound, under “increasing the pH from 8 to 13”, the Change of solubility result is listed as “modest reductions”. For the same compound, where the note is “physiologically relevant pH range (pH 1-8), saturated buffered aqueous solutions”, the Solubility result was “highly soluble”. In data set [2], the Solubility in water result is “very soluble in water”.
